Test results: PMC5736936, “Xylopine Induces Oxidative Stress and Causes G2/M Phase Arrest, Triggering Caspase-Mediated Apoptosis by p53-Independent Pathway in HCT116 Cells” (Oxidative Medicine and Cellular Longevity, 2017)
Read-outs that look alike come from different tables or passages of the source.

Tests used:
[1] = test system: BAD KO SV40 MEF (BAD gene knockout immortalized mouse embryonic fibroblast); assay: Cytotoxic activity in BAD gene knockout fibroblasts; assay type: cell-based; details: BAD KO SV40 MEF cell line
Text: (§1) MCF7 (human breast carcinoma), HCT116 (human colon carcinoma), HepG2 (human hepatocellular carcinoma), SCC-9 (human oral squamous cell carcinoma), HSC-3 (human oral squamous cell carcinoma), HL-60 (human promyelocytic leukemia), K-562 (human chronic myelogenous leukemia), B16-F10 (murine melanoma), MRC-5 (human lung fibroblast), WT SV40 MEF (wild-type immortalized mouse embryonic fibroblast), and BAD KO SV40 MEF (BAD gene knockout immortalized mouse embryonic fibroblast) cell lines were obtained from the American Type Culture Collection (ATCC, Manassas, VA, USA). Cells were cultured in complete medium with appropriate supplements as recommended by ATCC. All cell lines were tested for mycoplasma using the Mycoplasma Stain Kit (Sigma-Aldrich) to validate the use of cells free from contamination. Primary cell culture of peripheral blood mononuclear cells (PBMC) was obtained by standard Ficoll density protocol. The Research Ethics Committee of the Oswaldo Cruz Foundation (Salvador, BA, Brazil) approved the experimental protocol (number 031019/2013). Cell viability was examined using trypan blue exclusion assay for all experiments.
(§2) Cell viability was quantified using the alamarBlue assay according to Ahmed et al.. Cells were inserted in 96-well plates for all experiments (7 × 10^4 cells/mL for adherent cells or 3 × 10^5 cells/mL for suspended cells in 100 μL of medium). After 24 h, xylopine was dissolved in dimethyl sulfoxide (DMSO) and added to each well and incubated for 72 h. […] Four (for cell lines) or 24 h (for PBMCs) before the end of incubation, 20 μL of a stock solution (0.312 mg/mL) of the alamarBlue (resazurin, Sigma-Aldrich Co., Saint Louis, MO, USA) was added to each well. Absorbance at 570 nm and 600 nm was measured using the SpectraMax 190 Microplate Reader (Molecular Devices, Sunnyvale, CA, USA), and the drug effect was quantified as the percentage of control absorbance.

[2] = test system: WT SV40 MEF (wild-type immortalized mouse embryonic fibroblast); assay: Cytotoxic activity in wild-type fibroblasts; assay type: cell-based; details: WT SV40 MEF cell line
Text: as §1, §2

[3] = test system: cancer multicellular spheroids formed from HCT116 cells; assay: 3D multicellular spheroids culture, alamarBlue assay, 72 h; assay type: cell-based, human; details: 3D spheroids of HCT116, alamarBlue, 72 h
Experimental: HCT116 cells were cultivated in three-dimensional (3D) multicellular spheroids. Briefly, 100 μL of a solution of cells (0.5 × 10^6 cells/mL) was inserted in 96-well plates with a cell-repellent surface (Greiner Bio-One, Kremsmünster, Austria) and cultured in complete medium plus 3% Matrigel (BD Biosciences, San Jose, CA, USA). Spheroids with stable structures had formed after three days. Then, the spheroids were exposed to a range of drug concentrations for 72 h, after which the cell viability was quantified by alamarBlue assay as described above.

[4] = test system: PBMC (human peripheral blood mononuclear cells); assay: Cytotoxic activity, alamarBlue assay, 72 h (noncancer cells); assay type: cell-based
Text: as §1, §2

[5] = test system: MRC5 (human lung fibroblast); assay: as above; assay type: cell-based
Text: as §1, §2

HCT116 cells [6] = assay: Morphological analysis (May-Grünwald-Giemsa); assay type: cell-based, human; details: 24 and 48 h, DOX 1 μM, OXA 2.5 μM
Experimental: To evaluate alterations in morphology, cells were cultured under coverslip and stained with May-Grünwald-Giemsa. Morphological changes were examined by light microscopy using Image-Pro software.

HCT116 cells [7] = assay type: cell-based, human; details: for cell cycle block: OXA 2.5 μM
Experimental: Cells were harvested in a permeabilization solution containing 0.1% Triton X-100 (Sigma Chemical Co., St Louis, MO, USA), 2 μg/mL propidium iodide (Sigma Chemical Co.), 0.1% sodium citrate, and 100 μg/mL RNAse (Sigma Chemical Co.) and incubated in the dark for 15 min at room temperature. Finally, cell fluorescence was measured by flow cytometry on a BD LSRFortessa cytometer using the BD FACSDiva software (BD Biosciences) and FlowJo software 10 (FlowJo, LCC, Ashland, OR, USA).

[8] = test system: B16-F10 (murine melanoma); assay: Cytotoxic activity, alamarBlue assay, 72 h; assay type: cell-based; details: for IC50: B16-F10, alamarBlue, 72 h
Text: as §1, §2

[9] = test system: K562 (human chronic myelogenous leukemia); assay: Cytotoxic activity, alamarBlue assay, 72 h; assay type: cell-based; details: for IC50: K562, alamarBlue, 72 h;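 as to Selectivity index: SI is noncancer IC50 (MRC-5 or PBMC) divided by cancer cell IC50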
Text: as §1, §2

[10] = test system: HL-60 (human promyelocytic leukemia); assay: Cytotoxic activity, alamarBlue assay, 72 h; assay type: cell-based; details: for IC50: HL-60, alamarBlue, 72 h;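 as to Selectivity index: SI is noncancer IC50 (MRC-5 or PBMC) divided by cancer cell IC50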
Text: as §1, §2

[11] = test system: HepG2 (human hepatocellular carcinoma); assay: Cytotoxic activity, alamarBlue assay, 72 h; assay type: cell-based; details: for IC50: HepG2, alamarBlue, 72 h
Text: as §1, §2

[12] = test system: HCT116 (human colon carcinoma); assay: Cytotoxic activity, alamarBlue assay, 72 h; assay type: cell-based; details: for IC50: HCT116, alamarBlue, 72 h;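 as to Selectivity index: SI is noncancer IC50 (MRC-5 or PBMC) divided by cancer cell IC50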
Text: as §1, §2

[13] = test system: MCF7 (human breast carcinoma); assay: Cytotoxic activity, alamarBlue assay, 72 h; assay type: cell-based; details: for IC50: MCF7, alamarBlue, 72 h;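 as to Selectivity index: SI is noncancer IC50 (MRC-5 or PBMC) divided by cancer cell IC50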
Text: as §1, §2

[14] = test system: HSC3 (human oral squamous cell carcinoma); assay: Cytotoxic activity, alamarBlue assay, 72 h; assay type: cell-based; details: for IC50: HSC3, alamarBlue, 72 h
Text: as §1, §2

HCT116 cells [15] = assay: Cell viability by trypan blue exclusion assay; assay type: cell-based, human; details: HCT116, trypan blue, DOX 1 μM, OXA 2.5 μM, 24 and 48 h
Text: as §1

calf thymus DNA (ctDNA) = assay: DNA intercalation assay (ethidium bromide displacement); assay type: binding; details: doxorubicin 10 μM, data not shown
Experimental: DNA intercalation was assessed by examining the ability of xylopine to displace ethidium bromide from calf thymus DNA (ctDNA, Sigma-Aldrich Co.). The assay was conducted in 96-well plates and contained 15 μg/mL ctDNA, 1.5 μM ethidium bromide, and 10 or 20 μM xylopine in 100 μL saline solution. […] Fluorescence was measured using excitation and emission wavelengths of 320 and 600 nm, respectively.

[16] = test system: SCC9 (human oral squamous cell carcinoma); assay: Cytotoxic activity, alamarBlue assay, 72 h; assay type: cell-based
Text: as §1, §2

[17] = HCT116, OXA 2.5 μM, 24 h incubation
[18] = HCT116, OXA 2.5 μM, 48 h incubation
[19] = HCT116, DOX 1 μM, 24 h incubation
[20] = HCT116, DOX 1 μM, 48 h incubation

O=c1[nH]cc(F)c(=O)[nH]1 [5-FU, 5-fluorouracil] gave an IC50 [1] of 7300 nM and an IC50 [2] of 1700 nM.
O=C1[O][Pt]2([NH][C@@H]3CCCC[C@H]3[NH]2)[O]C1=O [OXA, oxaliplatin, reference compound] was tested, and the IC50 [3] was 6 µM, the IC50 [4] was 14900 nM and the IC50 [5] was 1500 nM. The cell morphology (HCT116 cells [6]) was “cell shrinkage, chromatin condensation, and nuclear fragmentation”, the cell cycle block (HCT116 cells [7]; HCT116, DOX 1 μM) was “caused cell cycle block at the phase G2/M” and the “DNA content (%) G0/G1” value (HCT116 cells [7]; [17]) was 32.4 ± 3.7%. The “DNA content (%) G2/M” value (HCT116 cells [7]; [17]) was 39.9 ± 1.5%, the “DNA content (%) S” value (HCT116 cells [7]; [17]) was 13.5 ± 3.1% and the “DNA content (%) Sub-G0/G1” value (HCT116 cells [7]; [17]) was 8.8 ± 3.5%. The “DNA content (%) G0/G1” value (HCT116 cells [7]; [18]) was 36.2 ± 2.6%, the “DNA content (%) G2/M” value (HCT116 cells [7]; [18]) was 32.2 ± 4.4% and the “DNA content (%) S” value (HCT116 cells [7]; [18]) was 7.6 ± 0.4%. For the same compound, the “DNA content (%) Sub-G0/G1” value (HCT116 cells [7]; [18]) was 17.7 ± 1.9%, the IC50 [8] was 100 nM and the IC50 [9] was 900 nM. The IC50 [10] was 400 nM, the IC50 [11] was 1000 nM and the IC50 [12] was 4100 nM. The IC50 [13] was 5900 nM, the IC50 [14] was 3300 nM and the “number of viable cells” value (HCT116 cells [15]) was “reduced the number of viable cells”.
Work on COc1cccc2c1C(=O)c1c(O)c3c(c(O)c1C2=O)C[C@@](O)(C(=O)CO)C[C@@H]3O[C@H]1C[C@H](N)[C@H](O)[C@H](C)O1 [DOX, doxorubicin] yielded an IC50 [1] of 400 nM, an IC50 ([3]; Homo sapiens, HCT-116) of 4.5 µM and an IC50 ([4]; Homo sapiens) of 5200 nM. For the same compound, the IC50 ([5]; Homo sapiens) was 1500 nM, the cell morphology (HCT116 cells [6]) was “cell shrinkage, chromatin condensation, and nuclear fragmentation” and the “displacement of ethidium bromide from ctDNA (fluorescence intensity)” value (calf thymus DNA (ctDNA)) was “significantly reduced the fluorescence intensity”. For the same compound, the “DNA content (%) G0/G1” value (HCT116 cells [7]; [19]) was 28.0 ± 6.3%, the “DNA content (%) G2/M” value (HCT116 cells [7]; [19]) was 44.1 ± 3.4^∗ % and the “DNA content (%) S” value (HCT116 cells [7]; [19]) was 10.0 ± 2.5%. For the same compound, the “DNA content (%) Sub-G0/G1” value (HCT116 cells [7]; [19]) was 9.7 ± 2.5%, the “DNA content (%) G0/G1” value (HCT116 cells [7]; [20]) was 22.5 ± 4.0^∗ % and the “DNA content (%) G2/M” value (HCT116 cells [7]; [20]) was 44.2 ± 4.4^∗ %. For the same compound, the “DNA content (%) S” value (HCT116 cells [7]; [20]) was 14.9 ± 2.5%, the “DNA content (%) Sub-G0/G1” value (HCT116 cells [7]; [20]) was 18.3 ± 2.5% and the cell cycle block (HCT116 cells [7]; HCT116, DOX 1 μM) was “caused cell cycle block at the phase G2/M”. The IC50 ([16]; Homo sapiens, SCC-9, SCC9, alamarBlue, 72 h) was 500 nM, the Selectivity index ([16]; IC50(MRC5)/IC50(SCC-9)) was 3 and the Selectivity index ([8]; IC50(MRC5)/IC50(B16-F10)) was 50. It also gave a Selectivity index ([8]; IC50(PBMC)/IC50(B16-F10)) of 173.3, an IC50 ([8]; Mus musculus) of 30 nM and an IC50 ([9]; Homo sapiens) of 300 nM. For the same compound, the Selectivity index ([9]; IC50(MRC5)/IC50(K-562)) was 5, the Selectivity index ([9]; IC50(PBMC)/IC50(K-562)) was 17.3 and the IC50 ([10]; Homo sapiens) was 300 nM. The Selectivity index ([10]; IC50(MRC5)/IC50(HL-60)) was 5, the Selectivity index ([10]; IC50(PBMC)/IC50(HL-60)) was 17.3 and the IC50 ([11]; Homo sapiens) was 100 nM. For the same compound, the Selectivity index ([11]; IC50(MRC5)/IC50(HepG2)) was 15, the Selectivity index ([11]; IC50(PBMC)/IC50(HepG2)) was 52 and the IC50 ([12]; Homo sapiens, HCT-116) was 100 nM. For the same compound, the Selectivity index ([12]; IC50(MRC5)/IC50(HCT116)) was 15, the Selectivity index ([12]; IC50(PBMC)/IC50(HCT116)) was 52 and the IC50 ([13]; Homo sapiens) was 1100 nM. It also gave a Selectivity index ([13]; IC50(MRC5)/IC50(MCF7)) of 1.4, a Selectivity index ([13]; IC50(PBMC)/IC50(MCF7)) of 4.7 and an IC50 ([14]; Homo sapiens, HSC-3) of 300 nM. For the same compound, the Selectivity index ([14]; IC50(MRC5)/IC50(HSC-3)) was 5, the Selectivity index ([14]; IC50(PBMC)/IC50(HSC-3)) was 17.3 and the “number of viable cells” value (HCT116 cells [15]) was “reduced the number of viable cells”. For the same compound, the IC50 [2] was 30 nM.
